Converted amounts (≈) assume the structure as drawn. The source made the active and inactive calls. No cut-off for these calls is given here.
Tests used:
Klebsiella pneumoniae = assay: Antimicrobial activity against Klebsiella pneumoniae after 20 hrs by agar dilution method; format: functional
Staphylococcus aureus = assay: Antimicrobial activity against Staphylococcus aureus after 20 hrs by agar dilution method; format: functional

Structure (SMILES) | Activity (Klebsiella pneumoniae) | Activity (Staphylococcus aureus) | MIC (Klebsiella pneumoniae) [µg/mL] | MIC (Staphylococcus aureus) [µg/mL]
COC(=O)C1=CO[C@@H](O[C@@H]2O[C@H](CO)[C@@H](O)[C@H](O)[C@H]2O)[C@H]2[C@@H]1C=C[C@]2(O)CO | Active | Active | – | –
COC(=O)C1=CO[C@@H](O)[C@H]2[C@@H]1C=C[C@]2(O)CO | – | – | 1000 (≈ 4130 µM) | 125 (≈ 516 µM)

From ChEMBL document CHEMBL1145663, “Studies on iridoid-related compounds, II. The structure and antimicrobial activity of aglucones of galioside and gardenoside” (1983)
